According to paper PMC12136037, “Type II kinase inhibitors that target Parkinson’s disease–associated LRRK2” (Science Advances, 2025):

Tests used:
Assay in all cases: 33PanQinase kinome-wide selectivity profile (Reaction Biology)
Type in all cases: biochemical
350 wild-type kinases [1] = target: T1, 350 wild-type kinases (Homo sapiens, UniProt Q8N568); settings: kinase DCAMKL2, ATP 1 µM, singlicate
T1 construct: purchased Reaction Biology (assay service)
Method: (§1) Compound RN341 was tested at two concentrations of 1 and 10 μM against a panel of 350 wild-type kinases in the ^33PanQinase assay. The assay was performed by Reaction Biology (www.reactionbiology.com/services/kinase-assays/kinase-panel-screening/).

350 wild-type kinases [2] = settings: 10 μM, 350 kinases
Method: as §1

350 wild-type kinases [3] = target: T2, 350 wild-type kinases (Homo sapiens, UniProt P24941); settings: singlicate; for Residual activity (% of control), CDK2/CycA2: kinase CDK2/CycA2, ATP 0,3 µM; for Residual activity (% of control), CDK2/CycD1: kinase CDK2/CycD1, ATP 3 µM; for Residual activity (% of control), CDK2/CycE1: kinase CDK2/CycE1, ATP 1 µM
T2 construct: purchased Reaction Biology (assay service)
Method: as §1

350 wild-type kinases [4] = target: T3, 350 wild-type kinases (Homo sapiens, UniProt Q13131); settings: kinase AMPKalpha1, ATP 3 µM, singlicate
T3 construct: purchased Reaction Biology (assay service)
Method: as §1

350 wild-type kinases [5] = target: T4, 350 wild-type kinases (Homo sapiens, UniProt P10398, Y301D/Y302D); settings: kinase ARAF YDYD (constitutively active variant), ATP 1 µM, singlicate
T4 construct: purchased Reaction Biology (assay service)
Method: as §1

350 wild-type kinases [6] = target: T5, 350 wild-type kinases (Homo sapiens, UniProt Q5S007); settings: 1 and 10 μM; authors think kinase was inactive in panel
T5 construct: purchased Reaction Biology (assay service)
Method: as §1

350 wild-type kinases [7] = target: T6, 350 wild-type kinases (Homo sapiens, UniProt P07333); settings: kinase CSF1R, ATP 0,3 µM, singlicate
T6 construct: purchased Reaction Biology (assay service)
Method: as §1

350 wild-type kinases [8] = target: T7, 350 wild-type kinases (Homo sapiens, UniProt Q8N5S9); settings: kinase CAMKK1, ATP 3 µM, singlicate
T7 construct: purchased Reaction Biology (assay service)
T7 sequence (Q8N5S9 whole entry): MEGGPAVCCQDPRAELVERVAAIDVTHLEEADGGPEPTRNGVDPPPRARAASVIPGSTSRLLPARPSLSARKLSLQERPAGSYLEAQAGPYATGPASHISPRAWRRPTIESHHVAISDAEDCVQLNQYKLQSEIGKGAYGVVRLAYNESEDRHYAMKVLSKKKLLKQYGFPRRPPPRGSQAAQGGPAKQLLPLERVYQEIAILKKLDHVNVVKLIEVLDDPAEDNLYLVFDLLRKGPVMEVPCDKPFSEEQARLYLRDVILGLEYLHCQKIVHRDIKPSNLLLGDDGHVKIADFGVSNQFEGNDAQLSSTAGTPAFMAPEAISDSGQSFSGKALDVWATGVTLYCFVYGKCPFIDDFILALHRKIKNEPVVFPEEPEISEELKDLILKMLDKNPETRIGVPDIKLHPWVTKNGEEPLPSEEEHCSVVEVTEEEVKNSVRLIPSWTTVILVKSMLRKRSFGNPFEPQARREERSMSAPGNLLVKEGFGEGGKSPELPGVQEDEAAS
Method: as §1

350 wild-type kinases [9] = target: T8, 350 wild-type kinases (Homo sapiens, UniProt P50750); settings: singlicate; for Residual activity (% of control), CDK9/CycK: kinase CDK9/CycK, ATP 1 µM; for Residual activity (% of control), CDK9/CycT1: kinase CDK9/CycT1, ATP 0,3 µM
T8 construct: purchased Reaction Biology (assay service)
T8 sequence (P50750 whole entry): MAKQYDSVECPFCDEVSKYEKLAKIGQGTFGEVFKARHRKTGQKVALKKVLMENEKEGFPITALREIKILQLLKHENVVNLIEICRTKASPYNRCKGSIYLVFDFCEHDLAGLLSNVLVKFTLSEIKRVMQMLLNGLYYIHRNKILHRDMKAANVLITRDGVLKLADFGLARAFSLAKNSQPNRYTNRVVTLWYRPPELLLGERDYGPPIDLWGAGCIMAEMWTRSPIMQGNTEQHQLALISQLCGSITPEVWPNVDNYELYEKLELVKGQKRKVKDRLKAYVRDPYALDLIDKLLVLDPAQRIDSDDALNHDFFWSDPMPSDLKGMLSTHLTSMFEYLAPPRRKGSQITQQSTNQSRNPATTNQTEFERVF
Method: as §1

350 wild-type kinases [10] = target: T9, 350 wild-type kinases (Homo sapiens, UniProt O96017); settings: kinase CHK2, ATP 1 µM, singlicate
T9 construct: purchased Reaction Biology (assay service)
T9 sequence (O96017 whole entry): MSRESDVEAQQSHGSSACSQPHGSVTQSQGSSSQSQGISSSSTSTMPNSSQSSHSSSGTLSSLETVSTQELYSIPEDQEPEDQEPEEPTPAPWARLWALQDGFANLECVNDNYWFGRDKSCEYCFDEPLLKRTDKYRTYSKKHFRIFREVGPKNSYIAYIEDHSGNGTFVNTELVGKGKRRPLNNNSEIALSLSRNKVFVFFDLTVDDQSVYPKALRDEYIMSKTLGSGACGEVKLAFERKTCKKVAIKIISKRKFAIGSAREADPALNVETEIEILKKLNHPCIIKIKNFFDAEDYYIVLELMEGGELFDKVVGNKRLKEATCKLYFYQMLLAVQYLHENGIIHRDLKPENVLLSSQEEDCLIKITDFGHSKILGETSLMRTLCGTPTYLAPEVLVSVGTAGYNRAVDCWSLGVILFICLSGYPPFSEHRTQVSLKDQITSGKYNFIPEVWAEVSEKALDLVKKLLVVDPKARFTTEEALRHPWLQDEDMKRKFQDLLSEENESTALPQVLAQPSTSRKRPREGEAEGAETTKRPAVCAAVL
Method: as §1

350 wild-type kinases [11] = target: T10, 350 wild-type kinases (Homo sapiens, UniProt Q09013); settings: kinase DMPK, ATP 0,1 µM, singlicate
T10 construct: purchased Reaction Biology (assay service)
Method: as §1

350 wild-type kinases [12] = target: T11, 350 wild-type kinases (Homo sapiens, UniProt O14578); settings: kinase CIT 1-450, ATP 0,1 µM, singlicate
T11 construct: purchased Reaction Biology (assay service)
Method: as §1

350 wild-type kinases [13] = target: T12, 350 wild-type kinases (Homo sapiens, UniProt Q16566); settings: kinase CAMK4, ATP 1 µM, singlicate
T12 construct: purchased Reaction Biology (assay service)
Method: as §1

350 wild-type kinases [14] = target: T13, 350 wild-type kinases (Homo sapiens, UniProt P06493); settings: singlicate; for Residual activity (% of control), CDK1/CycA2: kinase CDK1/CycA2, ATP 0,3 µM; for Residual activity (% of control), CDK1/CycB1: kinase CDK1/CycB1; for Residual activity (% of control), CDK1/CycB1 / Residual activity (% of control), CDK1/CycE1: ATP 1 µM; for Residual activity (% of control), CDK1/CycE1: kinase CDK1/CycE1
T13 construct: purchased Reaction Biology (assay service)
T13 sequence (P06493 whole entry): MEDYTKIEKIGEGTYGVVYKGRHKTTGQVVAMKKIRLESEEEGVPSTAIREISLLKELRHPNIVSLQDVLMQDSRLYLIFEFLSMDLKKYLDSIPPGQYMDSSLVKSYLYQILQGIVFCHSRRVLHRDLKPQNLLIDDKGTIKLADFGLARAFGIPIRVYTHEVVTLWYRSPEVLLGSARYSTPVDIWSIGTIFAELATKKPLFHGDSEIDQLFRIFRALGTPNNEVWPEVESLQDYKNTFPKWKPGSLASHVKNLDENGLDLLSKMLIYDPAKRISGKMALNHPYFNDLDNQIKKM
Method: as §1

350 wild-type kinases [15] = target: T14, 350 wild-type kinases (Homo sapiens, UniProt P78527); settings: kinase DNAPK, ATP 1 µM, singlicate
T14 construct: purchased Reaction Biology (assay service)
Method: as §1

350 wild-type kinases [16] = target: T15, 350 wild-type kinases (Homo sapiens, UniProt P36896); settings: kinase ACVR1B, ATP 3 µM, singlicate
T15 construct: purchased Reaction Biology (assay service)
Method: as §1

350 wild-type kinases [17] = target: T16, 350 wild-type kinases (Homo sapiens, UniProt P36894); settings: kinase BMPR1A, ATP 3 µM, singlicate
T16 construct: purchased Reaction Biology (assay service)
T16 sequence (P36894 24-532): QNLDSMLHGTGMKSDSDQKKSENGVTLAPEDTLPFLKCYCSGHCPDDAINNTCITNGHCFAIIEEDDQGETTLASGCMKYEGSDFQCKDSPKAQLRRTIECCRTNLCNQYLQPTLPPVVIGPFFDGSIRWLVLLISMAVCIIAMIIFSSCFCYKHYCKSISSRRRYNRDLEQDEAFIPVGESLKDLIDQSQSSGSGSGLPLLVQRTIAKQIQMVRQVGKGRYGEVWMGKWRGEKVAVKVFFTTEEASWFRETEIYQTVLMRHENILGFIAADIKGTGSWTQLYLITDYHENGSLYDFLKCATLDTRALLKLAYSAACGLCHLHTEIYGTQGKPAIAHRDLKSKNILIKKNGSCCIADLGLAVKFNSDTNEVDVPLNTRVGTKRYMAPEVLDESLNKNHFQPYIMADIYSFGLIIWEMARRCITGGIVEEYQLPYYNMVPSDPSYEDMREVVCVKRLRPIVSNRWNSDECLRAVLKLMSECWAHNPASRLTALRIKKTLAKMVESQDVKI
Method: as §1

350 wild-type kinases [18] = target: T17, 350 wild-type kinases (Homo sapiens, UniProt Q96Q40); settings: singlicate; for Residual activity (% of control), CDK15/CycA2: kinase CDK15/CycA2, ATP 1 µM; for Residual activity (% of control), CDK15/CycB1: kinase CDK15/CycB1, ATP 0,3 µM
T17 construct: purchased Reaction Biology (assay service)
T17 sequence (Q96Q40 whole entry): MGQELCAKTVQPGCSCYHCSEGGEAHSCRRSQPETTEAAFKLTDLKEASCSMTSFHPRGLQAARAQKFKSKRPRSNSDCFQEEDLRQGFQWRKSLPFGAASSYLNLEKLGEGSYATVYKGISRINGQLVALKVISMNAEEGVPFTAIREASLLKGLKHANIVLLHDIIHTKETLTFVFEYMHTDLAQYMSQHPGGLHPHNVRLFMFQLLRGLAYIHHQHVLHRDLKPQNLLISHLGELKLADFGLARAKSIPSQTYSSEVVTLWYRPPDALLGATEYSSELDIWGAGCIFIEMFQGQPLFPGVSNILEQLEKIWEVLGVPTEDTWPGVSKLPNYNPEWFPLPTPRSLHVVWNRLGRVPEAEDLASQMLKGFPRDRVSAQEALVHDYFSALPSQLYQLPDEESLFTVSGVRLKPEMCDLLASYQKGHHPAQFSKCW
Method: as §1

350 wild-type kinases [19] = target: T18, 350 wild-type kinases (Homo sapiens, UniProt Q9Y5S2); settings: kinase CDC42BPB, ATP 0,1 µM, singlicate
T18 construct: purchased Reaction Biology (assay service)
T18 sequence (Q9Y5S2 whole entry): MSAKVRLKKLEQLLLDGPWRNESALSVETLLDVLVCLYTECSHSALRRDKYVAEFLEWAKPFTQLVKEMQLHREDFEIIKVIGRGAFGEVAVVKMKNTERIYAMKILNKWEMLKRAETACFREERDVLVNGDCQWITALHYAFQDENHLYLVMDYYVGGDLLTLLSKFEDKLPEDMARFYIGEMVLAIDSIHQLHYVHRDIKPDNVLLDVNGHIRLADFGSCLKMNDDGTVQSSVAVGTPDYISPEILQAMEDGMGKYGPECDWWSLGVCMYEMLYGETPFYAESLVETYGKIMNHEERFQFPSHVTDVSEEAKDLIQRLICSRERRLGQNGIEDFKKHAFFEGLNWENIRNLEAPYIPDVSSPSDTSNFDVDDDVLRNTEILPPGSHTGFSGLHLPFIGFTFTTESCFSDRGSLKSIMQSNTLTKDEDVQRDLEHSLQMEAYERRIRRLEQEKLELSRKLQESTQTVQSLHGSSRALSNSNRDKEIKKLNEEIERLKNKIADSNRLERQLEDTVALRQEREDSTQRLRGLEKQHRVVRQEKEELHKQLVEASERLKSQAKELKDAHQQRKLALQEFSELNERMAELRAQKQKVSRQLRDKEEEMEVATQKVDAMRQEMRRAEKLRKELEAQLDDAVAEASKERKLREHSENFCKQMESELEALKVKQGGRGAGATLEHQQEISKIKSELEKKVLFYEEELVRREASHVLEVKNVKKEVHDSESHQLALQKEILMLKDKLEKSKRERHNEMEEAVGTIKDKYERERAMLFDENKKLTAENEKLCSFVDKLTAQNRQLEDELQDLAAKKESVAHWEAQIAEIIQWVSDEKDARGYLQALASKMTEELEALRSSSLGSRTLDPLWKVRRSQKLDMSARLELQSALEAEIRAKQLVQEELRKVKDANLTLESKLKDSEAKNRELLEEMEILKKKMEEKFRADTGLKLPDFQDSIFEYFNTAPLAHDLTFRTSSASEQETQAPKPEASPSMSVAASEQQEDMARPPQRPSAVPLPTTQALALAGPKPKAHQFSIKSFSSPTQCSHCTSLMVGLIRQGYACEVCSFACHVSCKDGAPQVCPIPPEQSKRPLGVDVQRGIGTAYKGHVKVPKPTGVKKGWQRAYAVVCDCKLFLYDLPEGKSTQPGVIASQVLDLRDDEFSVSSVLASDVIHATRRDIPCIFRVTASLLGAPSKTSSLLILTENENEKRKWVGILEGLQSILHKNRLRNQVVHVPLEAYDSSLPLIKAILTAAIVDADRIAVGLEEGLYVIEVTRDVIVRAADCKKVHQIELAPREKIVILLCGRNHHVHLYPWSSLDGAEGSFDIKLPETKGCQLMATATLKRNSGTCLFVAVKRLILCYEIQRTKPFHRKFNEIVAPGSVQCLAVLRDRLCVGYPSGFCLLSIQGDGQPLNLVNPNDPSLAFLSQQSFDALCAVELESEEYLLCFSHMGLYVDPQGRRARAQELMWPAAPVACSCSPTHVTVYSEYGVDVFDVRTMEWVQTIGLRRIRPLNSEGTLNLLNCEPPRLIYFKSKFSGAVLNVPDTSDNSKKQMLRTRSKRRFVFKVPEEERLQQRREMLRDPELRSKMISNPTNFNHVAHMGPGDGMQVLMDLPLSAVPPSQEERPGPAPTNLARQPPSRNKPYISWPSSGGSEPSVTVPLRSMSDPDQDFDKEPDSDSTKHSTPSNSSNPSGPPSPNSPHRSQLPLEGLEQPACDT
Method: as §1

350 wild-type kinases [20] = target: T19, 350 wild-type kinases (Homo sapiens, UniProt Q9UM73); settings: kinase ALK, ATP 0,3 µM, singlicate
T19 construct: purchased Reaction Biology (assay service)
Method: as §1

350 wild-type kinases [21] = target: T20, 350 wild-type kinases (Homo sapiens, UniProt Q13882); settings: kinase BRK, ATP 3 µM, singlicate
T20 construct: purchased Reaction Biology (assay service)
T20 sequence (Q13882 whole entry): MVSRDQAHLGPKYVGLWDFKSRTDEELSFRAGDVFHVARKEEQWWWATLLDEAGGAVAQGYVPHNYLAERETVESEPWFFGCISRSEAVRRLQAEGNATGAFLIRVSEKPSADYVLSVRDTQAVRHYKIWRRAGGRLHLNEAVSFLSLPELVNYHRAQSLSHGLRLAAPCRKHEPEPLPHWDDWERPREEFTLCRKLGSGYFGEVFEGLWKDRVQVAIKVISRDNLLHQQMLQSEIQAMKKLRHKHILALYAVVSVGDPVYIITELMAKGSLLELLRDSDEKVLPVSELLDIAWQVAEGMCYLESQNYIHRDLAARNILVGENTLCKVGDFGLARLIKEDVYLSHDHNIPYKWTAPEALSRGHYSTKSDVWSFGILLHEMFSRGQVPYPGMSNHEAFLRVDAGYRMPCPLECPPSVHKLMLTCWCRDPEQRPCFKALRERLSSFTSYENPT
Method: as §1

350 wild-type kinases [22] = target: T21, 350 wild-type kinases (Homo sapiens, UniProt Q9UQM7); settings: kinase CAMK2A, ATP 3 µM, singlicate
T21 construct: purchased Reaction Biology (assay service)
Method: as §1

350 wild-type kinases [23] = target: T22, 350 wild-type kinases (Homo sapiens, UniProt P42684); settings: kinase ABL2, ATP 0,3 µM, singlicate
T22 construct: purchased Reaction Biology (assay service)
Method: as §1

SMILES: CCSc1nc(NC)c2c(-c3cccc(NC(=O)Nc4cc(C(C)(C)C)nn4-c4ccc(C)cc4)c3)c[nH]c2n1 [Compound 32]
- Residual activity (% of control), DCAMKL2 (350 wild-type kinases [1]; Assay Conc. 1.0E-05 M): 91 % of control
- Residual activity (% of control), DCAMKL2 (350 wild-type kinases [1]; Assay Conc. 1.0E-06 M): 103 % of control
- number of kinases inhibited with less than 30% residual activity (350 wild-type kinases [2]): 10
- Residual activity (% of control), CDK2/CycA2 (350 wild-type kinases [3]; Assay Conc. 1.0E-05 M): 46 % of control
- Residual activity (% of control), CDK2/CycA2 (350 wild-type kinases [3]; Assay Conc. 1.0E-06 M): 105 % of control
- Residual activity (% of control), CDK2/CycD1 (350 wild-type kinases [3]; Assay Conc. 1.0E-05 M): 78 % of control
- Residual activity (% of control), CDK2/CycD1 (350 wild-type kinases [3]; Assay Conc. 1.0E-06 M): 110 % of control
- Residual activity (% of control), CDK2/CycE1 (350 wild-type kinases [3]; Assay Conc. 1.0E-05 M): 58 % of control
- Residual activity (% of control), CDK2/CycE1 (350 wild-type kinases [3]; Assay Conc. 1.0E-06 M): 103 % of control
- Residual activity (% of control), AMPKalpha1 (350 wild-type kinases [4]; Assay Conc. 1.0E-05 M): 85 % of control
- Residual activity (% of control), AMPKalpha1 (350 wild-type kinases [4]; Assay Conc. 1.0E-06 M): 95 % of control
- Residual activity (% of control), ARAF YDYD (350 wild-type kinases [5]; Assay Conc. 1.0E-05 M): 89 % of control
- Residual activity (% of control), ARAF YDYD (350 wild-type kinases [5]; Assay Conc. 1.0E-06 M): 116 % of control
- LRRK2 inhibition in the 33PanQinase screen (350 wild-type kinases [6]): not detected as a LRRK2 inhibitor
- Residual activity (% of control), CSF1R (350 wild-type kinases [7]; Assay Conc. 1.0E-05 M): 71 % of control
- Residual activity (% of control), CSF1R (350 wild-type kinases [7]; Assay Conc. 1.0E-06 M): 100 % of control
- Residual activity (% of control), CAMKK1 (350 wild-type kinases [8]; Assay Conc. 1.0E-05 M): 122 % of control
- Residual activity (% of control), CAMKK1 (350 wild-type kinases [8]; Assay Conc. 1.0E-06 M): 114 % of control
- Residual activity (% of control), CDK9/CycK (350 wild-type kinases [9]; Assay Conc. 1.0E-05 M): 86 % of control
- Residual activity (% of control), CDK9/CycK (350 wild-type kinases [9]; Assay Conc. 1.0E-06 M): 111 % of control
- Residual activity (% of control), CDK9/CycT1 (350 wild-type kinases [9]; Assay Conc. 1.0E-05 M): 85 % of control
- Residual activity (% of control), CDK9/CycT1 (350 wild-type kinases [9]; Assay Conc. 1.0E-06 M): 106 % of control
- Residual activity (% of control), CHK2 (350 wild-type kinases [10]; Assay Conc. 1.0E-05 M): 64 % of control
- Residual activity (% of control), CHK2 (350 wild-type kinases [10]; Assay Conc. 1.0E-06 M): 90 % of control
- Residual activity (% of control), DMPK (350 wild-type kinases [11]; Assay Conc. 1.0E-05 M): 69 % of control
- Residual activity (% of control), DMPK (350 wild-type kinases [11]; Assay Conc. 1.0E-06 M): 106 % of control
- Residual activity (% of control), CIT 1-450 (350 wild-type kinases [12]; Assay Conc. 1.0E-05 M): 71 % of control
- Residual activity (% of control), CIT 1-450 (350 wild-type kinases [12]; Assay Conc. 1.0E-06 M): 100 % of control
- Residual activity (% of control), CAMK4 (350 wild-type kinases [13]; Assay Conc. 1.0E-05 M): 100 % of control
- Residual activity (% of control), CAMK4 (350 wild-type kinases [13]; Assay Conc. 1.0E-06 M): 113 % of control
- Residual activity (% of control), CDK1/CycA2 (350 wild-type kinases [14]; Assay Conc. 1.0E-05 M): 62 % of control
- Residual activity (% of control), CDK1/CycA2 (350 wild-type kinases [14]; Assay Conc. 1.0E-06 M): 110 % of control
- Residual activity (% of control), CDK1/CycB1 (350 wild-type kinases [14]; Assay Conc. 1.0E-05 M): 82 % of control
- Residual activity (% of control), CDK1/CycB1 (350 wild-type kinases [14]; Assay Conc. 1.0E-06 M): 105 % of control
- Residual activity (% of control), CDK1/CycE1 (350 wild-type kinases [14]; Assay Conc. 1.0E-05 M): 51 % of control
- Residual activity (% of control), CDK1/CycE1 (350 wild-type kinases [14]; Assay Conc. 1.0E-06 M): 104 % of control
- Residual activity (% of control), DNAPK (350 wild-type kinases [15]; Assay Conc. 1.0E-05 M): 82 % of control
- Residual activity (% of control), DNAPK (350 wild-type kinases [15]; Assay Conc. 1.0E-06 M): 99 % of control
- Residual activity (% of control), ACVR1B (350 wild-type kinases [16]; Assay Conc. 1.0E-05 M): 76 % of control
- Residual activity (% of control), ACVR1B (350 wild-type kinases [16]; Assay Conc. 1.0E-06 M): 93 % of control
- Residual activity (% of control), BMPR1A (350 wild-type kinases [17]; Assay Conc. 1.0E-05 M): 85 % of control
- Residual activity (% of control), BMPR1A (350 wild-type kinases [17]; Assay Conc. 1.0E-06 M): 97 % of control
- Residual activity (% of control), CDK15/CycA2 (350 wild-type kinases [18]; Assay Conc. 1.0E-05 M): 92 % of control
- Residual activity (% of control), CDK15/CycA2 (350 wild-type kinases [18]; Assay Conc. 1.0E-06 M): 116 % of control
- Residual activity (% of control), CDK15/CycB1 (350 wild-type kinases [18]; Assay Conc. 1.0E-05 M): 86 % of control
- Residual activity (% of control), CDK15/CycB1 (350 wild-type kinases [18]; Assay Conc. 1.0E-06 M): 98 % of control
- Residual activity (% of control), CDC42BPB (350 wild-type kinases [19]; Assay Conc. 1.0E-05 M): 57 % of control
- Residual activity (% of control), CDC42BPB (350 wild-type kinases [19]; Assay Conc. 1.0E-06 M): 84 % of control
- Residual activity (% of control), ALK (350 wild-type kinases [20]; Assay Conc. 1.0E-05 M): 23 % of control
- Residual activity (% of control), ALK (350 wild-type kinases [20]; Assay Conc. 1.0E-06 M): 64 % of control
- Residual activity (% of control), BRK (350 wild-type kinases [21]; Assay Conc. 1.0E-05 M): 79 % of control
- Residual activity (% of control), BRK (350 wild-type kinases [21]; Assay Conc. 1.0E-06 M): 109 % of control
- Residual activity (% of control), CAMK2A (350 wild-type kinases [22]; Assay Conc. 1.0E-05 M): 63 % of control
- Residual activity (% of control), CAMK2A (350 wild-type kinases [22]; Assay Conc. 1.0E-06 M): 94 % of control
- Residual activity (% of control), ABL2 (350 wild-type kinases [23]; Assay Conc. 1.0E-05 M): 73 % of control
- Residual activity (% of control), ABL2 (350 wild-type kinases [23]; Assay Conc. 1.0E-06 M): 107 % of control
